In patent US6635786B2, “Symmetrically disubstituted aromatic compounds and pharmaceutical compositions for inhibiting poly (ADP-ribose) glycohydrolase, and methods for their use” (Guilford Pharmaceuticals, Inc., priority 2001, dated 2003):

Assays:
human PARG = target: T1, human PARG (Homo sapiens, UniProt Q86W56); assay: PARG enzymatic assay; format: biochemical; conditions: recombinant GST-fused human PARG (aa 378-976); 3H-labeled poly-(ADP-ribose) substrate; 23° C., 10 min
T1 construct: human PARG from amino acid 378 to 976; GST (glutathione-S-transferase, pGEX-4T1) (N); made in house; host or cells: E. coli BL21
T1 sequence (Q86W56 378-976): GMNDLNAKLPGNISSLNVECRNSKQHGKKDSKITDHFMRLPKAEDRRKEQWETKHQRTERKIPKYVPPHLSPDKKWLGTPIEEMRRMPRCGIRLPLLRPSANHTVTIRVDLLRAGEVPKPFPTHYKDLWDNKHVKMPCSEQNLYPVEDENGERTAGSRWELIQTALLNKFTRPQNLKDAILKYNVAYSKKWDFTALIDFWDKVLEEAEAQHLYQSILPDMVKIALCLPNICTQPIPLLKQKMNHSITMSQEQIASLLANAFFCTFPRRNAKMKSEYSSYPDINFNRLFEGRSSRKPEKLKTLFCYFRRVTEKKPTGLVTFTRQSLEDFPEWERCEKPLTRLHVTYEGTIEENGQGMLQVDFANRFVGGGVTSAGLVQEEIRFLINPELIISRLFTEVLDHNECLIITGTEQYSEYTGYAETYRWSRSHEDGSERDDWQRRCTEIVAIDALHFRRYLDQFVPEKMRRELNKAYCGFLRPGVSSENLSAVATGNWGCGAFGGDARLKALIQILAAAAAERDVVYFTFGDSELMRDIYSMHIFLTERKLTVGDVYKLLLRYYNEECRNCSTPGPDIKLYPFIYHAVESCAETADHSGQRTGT
Protocol: The potency of PARG inhibition was determined in a PARG enzymatic assay. For each compound, various doses were used to inhibit the PARG reaction. A dose responsible curve was generated to determine the IC50 value and the concentration (in μM) required to achieve 50% inhibition of the reaction.
The PARG assay consisted of (a) preparation of 3H-labeled radioactive PARG as substrate, (b) purification of recombinant PARG, (c) incubation of the compound with the PARG reaction, (d) separation of the product by absorption to glass fiber filter and quantifying the radioactivity of ADP-ribose by scintillation counting.
3H-labeled poly-(ADP-ribose) was made by mixing labeled and unlabeled PAR. Labeled PAR was synthesized in a reaction of 50 mM Tris-HCl (pH 8.0), 4 mM MgCl2, 0.8 μg/mL activated DNA, 3 μM NAD, NEN 3H-NAD (0.1 mCi/mL), 0.8 μl/mL and 1.4 μl/mL Trevigen PARP. The reaction was incubated at room temperature for 60 min, then dialyzed to remove unincorporated 3H NAD using a MWCO 7000 dialysis cassette in 50 mM Phosphate buffer (pH 7.1) at 5° C. over night. Buffer was changed and dialysis continued for 2 h in the morning. The resulting 3H PAR gave 80,000 DPM/10 μL by scintillation counting.
Unlabeled PAR was synthesized in a reaction that consisted of 50 mM Tris-HCl (pH 8.0), 4 mM MgCl2, 0.8 μg/mL activated DNA, 150 μM NAD, and 1.9 μl/mL Trevigen PARP. The reaction was incubated at room temperature for 60 min, and dialyzed to remove unincorporated NAD in a MWCO 7000 cassette using 50 mM Phosphate buffer (pH 7.1) over night at […]. Buffer was changed and dialysis continued for 2 h in the morning. The OD260 of synthesized PAR is […].
The final PAR mix is made by combining 3H-PAR and PAR synthesized @ 150 μM NAD so that the OD260=0.2-0.3 and the DPM/10 μL=10,000 DPM (SA=0.45 Ci/mmole). EDTA was added to 1 mM.
A cDNA fragment encoding the carboxy terminal part of human PARG from amino acid 378 to 976 was amplified by polymerase chain reaction with human thymus cDNA (Clontech, Palo Alto, Calif.) as a template and a pair of primers with the sequences of 5′-[…]-3′ and 5′-[…]-3′. The primers contained the restriction enzyme sites EcoRI and XhoI. The PCR amplified PARG DNA fragment was digested with EcoRI and XhoI, and then ligated to the same sites in pGEX-4T1 plasmid (acquired from Pharmacia/Upjohn Co., Kalamazoo, Mich.) to create pGEX-PARG by using standard molecular biology procedure. The pGEX-PARG was transformed into E. coli strain BL21 for expressing the recombinant protein that has a glutathione-S-transferase at the amino terminus and fused in frame with PARG at the carboxy terminus. The recombinant protein was expressed and purified using glutathione-sephadex 4B beads according to the standard methodology.
A range of potential PARG inhibitors at final concentrations of 200.0 to 0.1 μM were tested, each point done in triplicate. The compounds were dissolved in DMSO resulting in a final DMSO concentration of 5.0%. The reaction was carried out in a volume of 0.1 mL. PARG enzyme was added to a concentration of 0.05 μL/mL to microtiter plates containing approximately 10 μM 3H-labeled poly-(ADP-ribose) in 50 mM Phosphate buffer (pH 7.1), 5 mM B-mercaptoethanol. The reaction was incubated at 23° C. for 10 min. and was stopped with the addition of TCA to a final concentration of 10%.
Enzyme activity was measured by the disappearance of substrate, [poly-(ADP-ribose) polymer], which was quantified as the loss of glass fiber filter adsorbed radioactivity. The reaction was harvested onto Millipore GFC96 well filter plates using the Packard Cell Harvestor. The plates were washed three times with 70% ethanol, air dried, and the radioactivity was measured by scintillation counting.

Compound `O=C(c1cccc(C(=O)N2CCN(c3ccccc3)CC2)c1)c1cccc(C(=O)N2CCN(c3ccccc3)CC2)c1` [Example 22] has a melting point of 157 to 158 °C and an IC50 (human PARG) of 17.1 µM.

Work on `O=C(CCCl)c1ccc2c(c1)Cc1cc(C(=O)CCCl)ccc1O2` [Example 37, 2,7-Bis-(3-chloro-propionyl)-xanthene] yielded a melting point of 179 to 181 °C and an IC50 (human PARG) of 17 µM.

Compound `O=C(CCN1CCN(c2ccccc2)CC1)c1ccc2c(c1)Cc1cc(C(=O)CCN3CCN(c4ccccc4)CC3)ccc1O2` [Example 39, 2,7-Bis-[3-(4-phenyl-piperazin-1-yl)propionyl]-xanthene] has a melting point of 206 to 208 °C and an IC50 (human PARG) of 7.1 µM.

Work on `O=C(CCN1CCN(c2cccc(C(F)(F)F)c2)CC1)c1ccc2c(c1)Cc1cc(C(=O)CCN3CCN(c4cccc(C(F)(F)F)c4)CC3)ccc1O2` [Example 40, 2,7-Bis-{3-[4-(3-trifluoromethyl-phenyl)-piperazin-1-yl]-propionyl}-xanthene] yielded a melting point of 155 to 157 °C and an IC50 (human PARG) of 10.6 µM.

Work on `O=C(CCN1CCN(c2cccc(C(F)(F)F)c2)CC1)c1ccc2oc3ccc(C(=O)CCN4CCN(c5cccc(C(F)(F)F)c5)CC4)cc3c(=O)c2c1` [Example 41, 2,7-Bis-{3-[4-(3-trifluoromethyl-phenyl)-piperazin-1-yl]-propionyl}-xanthen-9-one] yielded a melting point of 166 to 167 °C and an IC50 (human PARG) of 17.5 µM.

For `O=C(CCN1CCN(c2ccccc2)CC1)c1ccc2oc3ccc(C(=O)CCN4CCN(c5ccccc5)CC4)cc3c(=O)c2c1` [Example 42, 2,7-Bis-[3-(4-phenyl-piperazin-1-yl)-propionyl]-xanthen-9-one], the melting point was 199 to 201 °C and the IC50 (human PARG) was 100 µM.

`O=C(NCCc1ccccc1)c1ccc2c(c1)C(=O)c1cc(C(=O)NCCc3ccccc3)ccc1-2` [Example 56, 9-Oxo-9H-fluorene-2,7-bis-(phenethyl-amide)] showed a melting point of 327 to 329 °C and an IC50 (human PARG) of 22 µM.

Compound `O=C(NCc1ccc(Cl)c(Cl)c1)c1ccc2c(c1)C(=O)c1cc(C(=O)NCc3ccc(Cl)c(Cl)c3)ccc1-2` [Example 57, 9-Oxo-9H-fluorene-2,7-bis-(3,4-dichloro-benzylamide)] has a melting point of 265 to 267 °C and an IC50 (human PARG) of 15 µM.

`O=C(NCc1ccc(O)c(O)c1)c1ccc2c(c1)C(=O)c1cc(C(=O)NCc3ccc(O)c(O)c3)ccc1-2` [Example 58, 9-Oxo-9H-fluorene-2,7-bis-(3,4-dihydroxy-benzylamide)] showed a melting point of 160 to 163 °C and an IC50 (human PARG) of 10 µM.

`O=C(CCN1CCN(c2ccc(F)cc2)CC1)c1ccc2c(c1)Cc1cc(C(=O)CCN3CCN(c4ccc(F)cc4)CC3)ccc1O2` [Example 59] gave a melting point of 207 to 209 °C and an IC50 (human PARG) of 2.9 µM.

In the case of `O=C(CCN1CCN(c2cccc(Cl)c2)CC1)c1ccc2c(c1)Cc1cc(C(=O)CCN3CCN(c4cccc(Cl)c4)CC3)ccc1O2` [Example 60], the melting point is reported as 182 to 185 °C and the IC50 (human PARG) is reported as 1.1 µM.
